molecular target: PAR4 (Homo sapiens (Human), UniProt Q96RI0); experiment: FLIPR assay in PAR4-expressing HEK293 cells (PAR4 antagonist activity, calcium mobilization); assay type: cell-based; conditions: H-Ala-Phe(4-F)-Pro-Gly-Trp-Leu-Val-Lys-Asn-Gly-NH2-induced calcium mobilization
Outline: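 HEK293 EBNA cells stably expressing human PAR4 (also endogenous PAR1) preincubated 30 min at room temperature with compound in HBSS/10 mM HEPES, 0.67% DMSO final. PAR4 agonist peptide then added and intracellular calcium mobilization monitored by fluorescence.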

Chain of PAR4 (Q96RI0 18-385): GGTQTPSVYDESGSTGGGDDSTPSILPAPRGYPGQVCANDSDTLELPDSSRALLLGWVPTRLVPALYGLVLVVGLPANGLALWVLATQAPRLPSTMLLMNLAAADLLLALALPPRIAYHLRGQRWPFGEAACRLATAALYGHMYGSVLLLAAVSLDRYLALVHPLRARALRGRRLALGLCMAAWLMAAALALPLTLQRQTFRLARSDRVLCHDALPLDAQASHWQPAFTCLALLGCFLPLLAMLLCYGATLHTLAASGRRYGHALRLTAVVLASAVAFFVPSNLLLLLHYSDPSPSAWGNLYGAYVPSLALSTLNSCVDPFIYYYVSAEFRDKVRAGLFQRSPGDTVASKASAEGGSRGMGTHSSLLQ

EC50 | SMILES
2.4 nM | COc1cc(OCc2nc(-c3ccc(C(=O)O)cc3)sc2C)c2cc(-c3cn4nc(OC)sc4n3)oc2c1 [Example 46, 4-(4-(((6-Methoxy-2-(2-methoxyimidazo[2,1-b][1,3,4]thiadiazol-6-yl)benzofuran-4-yl)oxy)methyl)-5-methylthiazol-2-yl)benzoic acid]
0.82 nM | CCC(O)(c1nc(COc2cc(OC)cc3oc(-c4cn5nc(OC)sc5n4)cc23)cs1)C(F)(F)F (stereo not shown) [Example 138]
1.2 nM | COc1cc(OCc2csc(N3CCN(c4ccccn4)CC3)n2)c2cc(-c3cn4nc(C)ccc4n3)oc2c1 [Example 263]
0.68 nM | COc1cc(OCc2csc(N3CC4(COC4)C3)n2)c2cc(-c3cn4nc(OC)sc4n3)oc2c1 [Example 104, 6-(4-(((6-Methoxy-2-(2-methoxyimidazo[2,1-b][1,3,4]thiadiazol-6-yl)benzofuran-4-yl)oxy)methyl)thiazol-2-yl)-2-oxa-6-azaspiro[3.3]heptane]
3.1 nM | COc1cc(OCc2csc(Nc3cccc(N(C)C)c3)n2)c2cc(-c3cn4nc(C)ccc4n3)oc2c1 [Example 248]
0.91 nM | COc1cc(OCc2csc(N3CCOCC3)n2)c2cc(-c3cn4nc([C@H](C)F)sc4n3)oc2c1 [Example 193, (S)-4-(4-(((2-(2-(1-Fluoroethyl)imidazo[2,1-b][1,3,4]thiadiazol-6-yl)-6-methoxybenzofuran-4-yl)oxy)methyl)thiazol-2-yl)morpholine]
0.52 nM | COc1cc(OCc2csc(N3CCSCC3)n2)c2cc(-c3cn4nc(OC)sc4n3)oc2c1 [Example 53]
0.95 nM | COc1cccc(C2(c3nc(COc4cc(OC)cc5oc(-c6cn7nc(OC)sc7n6)cc45)cs3)CCOCC2)c1 [Example 158, 2-Methoxy-6-(6-methoxy-4-((2-(4-(3-methoxyphenyl)tetrahydro-2H-pyran-4-yl)thiazol-4-yl)methoxy)benzofuran-2-yl)imidazo[2,1-b][1,3,4]thiadiazole]
1.3 nM | COc1cc(OCc2nc(-c3ccc(C(=O)OC(C)(C)C)cc3)sc2C)c2cc(-c3cn4nc(OC)sc4n3)oc2c1 [Example 45, tert-Butyl 4-(4-(((6-methoxy-2-(2-methoxyimidazo[2,1-b][1,3,4]thiadiazol-6-yl)benzofuran-4-yl)oxy)methyl)-5-methylthiazol-2-yl)benzoate]
0.98 nM | COc1cc(OCc2csc(N(C)CCC#N)n2)c2cc(-c3cn4nc(OC)sc4n3)oc2c1 [Example 106, 3-((4-(((6-Methoxy-2-(2-methoxyimidazo[2,1-b][1,3,4]thiadiazol-6-yl)benzofuran-4-yl)oxy)methyl)thiazol-2-yl)(methyl)amino)propanenitrile]
0.88 nM | COc1cc(OCc2csc(-c3ccc(C(=O)NC(C)C)cc3)n2)c2cc(-c3cn4nc(OC)sc4n3)oc2c1 [Example 304]
2.5 nM | COc1cc(OCc2nc(-c3ccc(C(=O)N(C)C)cc3)sc2C(C)C)c2cc(-c3cn4nc(OC)sc4n3)oc2c1 [Example 42, 4-(5-Isopropyl-4-(((6-methoxy-2-(2-methoxyimidazo[2,1-b][1,3,4]thiadiazol-6-yl)benzofuran-4-yl)oxy)methyl)thiazol-2-yl)-N,N-dimethylbenzamide]
1.6 nM | COc1cc(OCc2csc(-c3ccc(C(=O)N(C)C)cc3)n2)c2cc(-c3cn4nc([C@H](C)F)sc4n3)oc2c1 [Example 194, (S)-4-(4-(((2-(2-(1-Fluoroethyl)imidazo[2,1-b][1,3,4]thiadiazol-6-yl)-6-methoxybenzofuran-4-yl)oxy)methyl)thiazol-2-yl)-N,N-dimethylbenzamide]
1.1 nM | COc1cc(OCc2csc(N3CCN(c4cccc(Cl)n4)CC3)n2)c2cc(-c3cn4nc(C)ccc4n3)oc2c1 [Example 284]
0.23 nM | COc1cc(OCc2csc(-c3ccc(CO)cc3)n2)c2cc(-c3cn4nc(OC)sc4n3)oc2c1 [Example 69]
1.1 nM | COc1cc(OCc2csc(C3(c4cccc(Cl)c4)CCOC3)n2)c2cc(-c3cn4nc(OC)sc4n3)oc2c1 (stereo not shown) [Example 165, 6-(4-((2-(3-(3-Chlorophenyl)tetrahydrofuran-3-yl)thiazol-4-yl)methoxy)-6-methoxybenzofuran-2-yl)-2-methoxyimidazo[2,1-b][1,3,4]thiadiazole]

EC50 | SMILES
1.1 nM | COc1cc(OCc2csc(C3(F)CC(C)OC(C)C3)n2)c2cc(-c3cn4nc([C@H](C)F)sc4n3)oc2c1 (stereo partly drawn) [Example 199, 6-(4-((2-(4-Fluoro-2,6-dimethyltetrahydro-2H-pyran-4-yl)thiazol-4-yl)methoxy)-6-methoxybenzofuran-2-yl)-2-((S)-1-fluoroethyl)imidazo[2,1-b][1,3,4]thiadiazole]
0.27 nM | COc1cc(OCc2nc(N3CCOCC3)sc2C(C)(C)O)c2cc(-c3cn4nc(OC)sc4n3)oc2c1 [Example 91, 2-(4-(((6-Methoxy-2-(2-methoxyimidazo[2,1-b][1,3,4]thiadiazol-6-yl)benzofuran-4-yl)oxy)methyl)-2-morpholinothiazol-5-yl)propan-2-ol]
0.26 nM | COc1cc(OCc2csc(N3C[C@@H](C)O[C@@H](C)C3)n2)c2cc(-c3cn4nc(OC)sc4n3)oc2c1 [Example 51]
0.53 nM | COc1cc(OCc2csc(-c3ccc(C(=O)N(C)C(C)C)cc3)n2)c2cc(-c3cn4nc(OC)sc4n3)oc2c1 [Example 310]
1.4 nM | COc1cc(OCc2csc(-c3ccc(OC(F)(F)F)cc3)n2)c2cc(-c3cn4nc(OC)sc4n3)oc2c1 [Example 29]
0.37 nM | COc1cc(OCc2csc(C3=CCC(C(=O)OC(C)(C)C)CC3)n2)c2cc(-c3cn4nc(OC)sc4n3)oc2c1 (stereo not shown) [Example 148, tert-Butyl 4-(4-(((6-methoxy-2-(2-methoxyimidazo[2,1-b][1,3,4]thiadiazol-6-yl)benzofuran-4-yl)oxy)methyl)thiazol-2-yl)cyclohex-3-enecarboxylate]
0.69 nM | COc1cc(OCc2nc(N3CCOCC3)sc2CO)c2cc(-c3cn4nc(OC)sc4n3)oc2c1 [Example 89, (4-(((6-Methoxy-2-(2-methoxyimidazo[2,1-b][1,3,4]thiadiazol-6-yl)benzofuran-4-yl)oxy)methyl)-2-morpholinothiazol-5-yl)methanol]
0.4 nM | COc1cc(OCc2csc(-c3ccc(C(=O)N4CC(OC)C4)cc3)n2)c2cc(-c3cn4nc(OC)sc4n3)oc2c1 [Example 294]
871 nM | COc1cc(OCc2csc(N3CCC(N(C)C)CC3)n2)c2cc(-c3cn4nc(C)ccc4n3)oc2c1 [Example 252]
110 nM | COc1cc(OCc2csc(N3CCN(C4CCOCC4)CC3)n2)c2cc(-c3cn4nc(C)ccc4n3)oc2c1 [Example 286]
1.3 nM | COc1cc(OCc2csc(C(C)(C)c3ccc(Cl)cc3)n2)c2cc(-c3cn4nc(OC)sc4n3)oc2c1 [Example 176, 6-(4-((2-(2-(4-Chlorophenyl)propan-2-yl)thiazol-4-yl)methoxy)-6-methoxybenzofuran-2-yl)-2-methoxyimidazo[2,1-b][1,3,4]thiadiazole]
7 nM | COc1cc(OCc2csc(Nc3cccc(C#N)c3)n2)c2cc(-c3cn4nc(C)ccc4n3)oc2c1 [Example 260]
0.73 nM | COc1cc(OCc2csc(C(O)(C3CCCCC3)C(F)(F)F)n2)c2cc(-c3cn4nc(OC)sc4n3)oc2c1 (stereo not shown) [Example 146]
1.8 nM | COc1cc(OCc2csc(-c3ccccc3F)n2)c2cc(-c3cn4nc(OC)sc4n3)oc2c1 [Example 26]
0.72 nM | COc1cc(OCc2csc(-c3ccc(C(=O)NCCO)cc3)n2)c2cc(-c3cn4nc(OC)sc4n3)oc2c1 [Example 293]
